According to US10206986B2, “Annexin II variant compositions and methods” (REGENTS OF THE UNIVERSITY OF MINNESOTA, priority 2013, dated 2019):

Tests used:
hTLR2 = molecular target: T1, hTLR2 (Homo sapiens, UniProt O60603); experiment: TLR2-transfected HEK 293 Blue cells, secreted alkaline phosphatase (NF-κB activity); format: cell-based; conditions: 48 hours, FIGS. 3, 6, 7
T1 construct: host or cells: HEK 293 Blue Cells
Source text: (§1) To test if the 35 amino acid N-terminus of annexin II, which distinguishes annexin II from other annexins, contains adjuvant activity, we pulsed bone marrow-derived dendritic cells (BMDC) with gp100+/−A2OVA, fusion peptide containing this 35 amino acid fragment. […] We then tested whether this fusion peptide enhanced adjuvant activity over that of addition of OVA and full length annexin II protein. BMDC were pulsed with A2OVA and we measured the OVA-specific OT-1 CD8 T cell response. […] To further investigate the ability to derive a novel single antigen fusion peptide, we constructed OVA fusion peptides in which an OVA peptide (SEQ ID NO:9) was fused to either an annexin II N-terminal fragment or a scrambled 35 amino acid peptide to produce SEQ ID NO:30 and SEQ ID NO:29, respectively. Peptides were pulsed on TLR2 transfected cells and alkaline phosphatase activity was used to determine NF-κB activity (FIG. 3).
HEK 293 Blue Cells (Invivogen, San Diego, Calif.) stably transfected with hTLR2 were pulsed with annexin II-OVA fusion protein (A2OVA, SEQ ID NO:32) at equal concentration as annexin II monomer (A2 Peptide, SEQ ID NO:28). Scrambled annexin II N-terminus polypeptide (SEQ ID NO:29, Scrambled) and an annexin II fragment (SEQ ID NO:30, Minus p11) were used as controls. Cells were incubated for 48 hours. Following incubation, supernatant was added to Quanti-Blue (Invivogen, San Diego, Calif.) for secreted alkaline phosphatase detection.
(§2) TLR2-transfected HEK 293 Blue Cells and TLR4-transfected HEK 293 Blue Cells (Invivogen, San Diego, Calif.) were pulsed with the N-terminal 15 amino acid annexin II fragment peptide (15aa Peptide, SEQ ID NO:5) at different concentrations. Cells were incubated for 48 hours. Following incubation, supernatant was added to Quanti-Blue (Invivogen, San Diego, Calif.) for secreted alkaline phosphatase detection.
as §2, with “or one of the annexin II variants shown in Table 1.” for “at different concentrations.”

breast tumor = experiment: Breast-tumor-bearing mice vaccinated intraperitoneally, tumor growth and survival; format: in vivo, BALB/c mice; conditions: 10 consecutive days intraperitoneally; for survival of tumor bearing mice: breast tumor bearing BALB/c mice, compared to saline or scrambled control, FIG. 5
Protocol: (§3) Next, we investigated the use of the A2OVA in vivo. A2OVA peptide (SEQ ID NO:32) was given to non-tumor bearing mice as described in FIG. 4A to see if they would elicit an OVA specific T cell response. […] To determine if the 35 amino acid annexin II fragment can extend survival in tumor bearing animals in an antigen non-specific manner, we used breast tumor bearing BALB/c mice, which lack the MHC haplotype to present SIINFEKL. Mice were treated with A2OVA peptide as summarized in FIG. 5A and followed for survival.

TLR4 = molecular target: T2, TLR4 (Homo sapiens, UniProt O00206); experiment: TLR4-transfected HEK 293 Blue cells, secreted alkaline phosphatase (NF-κB activity); format: cell-based; conditions: 48 hours, FIGS. 6, 7
T2 construct: host or cells: HEK 293 Blue Cells
Source text: To better characterize the 35 amino acid N-terminus as an adjuvant, we serially removed five amino acids from the C-terminus end of the N-terminal fragment to produce annexin II variants SEQ ID NO:2, SEQ ID NO:3, SEQ ID NO:4, SEQ ID NO:5, and SEQ ID NO:6. We tested the resulting peptides for NF-κB activity. […] To test the ability of the 15 amino acid annexin II fragment (SEQ ID NO:5) to stimulate an immune response, and to determine whether its ability to do so is mediated through TLR2, wild-type and TLR-2 knockout mice were given OVA±annexin II or OVA±the 15 amino acid N-terminal annexin II fragment (SEQ ID NO:5).
as §2
TLR2-transfected HEK 293 Blue Cells and TLR4-transfected HEK 293 Blue Cells (Invivogen, San Diego, Calif.) were pulsed with the N-terminal 15 amino acid annexin II fragment peptide (15aa Peptide, SEQ ID NO:5) or one of the annexin II variants shown in Table 1. Cells were incubated for 48 hours. […]

[1] = tested on: OVA specific CD8+ T cell response; experiment: Vaccination of BL/6 mice, CD8+SIINFEKL+ expansion in whole blood on Day 8; format: in vivo; conditions: four consecutive days, hind leg
Protocol: as §3
BL/6 mice also were vaccinated for four consecutive days in the hind leg with ovalbumin (OVA), ovalbumin+ and 50 μg of the N-terminal 15 amino acid annexin II fragment peptide (SEQ ID NO:5, 15aa), or ovalbumin+50 μg the annexin II variant A-6 (Table 1, SEQ ID NO:17, 15aaP6). On Day 8, mice were bled and whole blood was analyzed for CD8^+SIINFEKL^+ expansion.

[2] = tested on: bone marrow derived dendritic cells; experiment: BMDCs (wild-type, TLR2-/-, TLR4-/-, MyD88-/-) pulsed with peptide, CD80/CD86 by flow cytometry; format: cell-based, mice; conditions: 50 μg peptide, 48 hours, TLR2, TLR4 and MyD88 knockout BMDCs, CD11c+MHCII+ gate; for CD80 co-stimulatory molecule expression (MFI): FIG. 11; for CD86 co-stimulatory molecule expression (MFI): FIG. 12
Protocol: To further characterize the activity of the A-6 variant (SEQ ID NO:17), BMDCs from wild-type, TLR2 knockout, TLR4 knockout, and MyD88 knockout mice were pulsed with the peptide and analyzed for co-stimulatory molecules CD80 (FIG. 11) and CD86 (FIG. 12).
BDMCs (wild-type, TLR2^−/−, TLR4^−/−, and MyD88^−/−) were cultured with 20 ng/mL GM-CSF for six days, then pulsed with 50 ng Pam3CSK4, 50 ng LPS, 50 μg of the N-terminal 15 amino acid annexin II fragment peptide (SEQ ID NO:5, 15aa A2p), or 50 μg of annexin II variant A-6 (SEQ ID NO:17, 15aa A2p6 AL). After 48 hours, cells were stained for CD11c, MHC II, CD80, and CD86 and analyzed by flow cytometry. MFI shown is from a live cell, CD11c^+MHCII^+ gate.

[3] = tested on: bone marrow derived dendritic cells; experiment: BMDCs (wild-type, TLR4-/-, MyD88-/-) pulsed with peptide, TNF in supernatant by bead array; format: cell-based, mice; conditions: 50 μg peptide, 48 hours, TLR4 knockout and MyD88 knockout BMDCs, FIG. 10
Protocol: To determine the 15 amino acid N-terminal annexin II fragment's activity on dendritic cells, BMDCs were derived for wild-type, TLR4 knockout, and MyD88 knockout mice. The various BMDCs and pulsed with the 15 amino acid N-terminal annexin II fragment (SEQ ID NO:5).
BMDCs (wild-type, TLR4^−/−, and MyD88^−/−) were cultured with 20 ng/mL GM-CSF for six days, then pulsed with 50 ng Pam3CSK4, 50 ng LPS, or 50 μg of the N-terminal 15 amino acid annexin II fragment peptide (SEQ ID NO:5, A2-15aa). After 48 hours, cell culture supernatant was assayed for TNF by bead array.

[4] = tested on: gp100-specific CD8 T cell response; experiment: BMDCs pulsed with hgp100 25-33 plus peptide, co-cultured with Pmel CD8+ T cells, IFN-γ by bead array; format: cell-based, C57BL/6 mice; conditions: BMDC pulsed with gp100 +/- A2OVA; equal concentration and equal molecular ratio compared to full-length annexin II; FIG. 1
Source text: as §1
Bone marrow derived dendritic cells (BMDCs) were differentiated from C57BL/6 mice and pulsed with hgp10025-33 (SEQ ID NO: 27) with annexin II-OVA fusion protein (SEQ ID NO:32) at equal concentration (*) or equal molecular ratio (**) as A2 monomer (SEQ ID NO:28) and incubated for 24 hours. Annexin A2 monomer was used as a positive control. […] IFN-γ in the tissue culture supernatant was quantified by bead array.

[5] = tested on: OVA-specific OT-1 CD8 T cell response; experiment: BMDCs pulsed with OVA peptide/fusion, co-cultured with OT-I CD8+ T cells, IFN-γ by bead array; format: cell-based, mice; conditions: BMDC pulsed with A2OVA versus A2 monomer + OVA as separate agents; FIG. 2
Source text: as §1
BMDCs were pulsed with OVA248-274 (SEQ ID NO:31), annexin II (A2 monomer, SEQ ID NO:28), a combination of OVA248-274 and annexin II (A2 monomer+OVA), or annexin II-OVA fusion protein (A2OVA, SEQ ID NO:32), and incubated for 24 hours. Purified OT-I CD8^+ T cells were added and co-cultured for an additional 48 hours. IFN-γ in the tissue culture supernatant was quantified by bead array.

T1 sequence (O60603 21-784): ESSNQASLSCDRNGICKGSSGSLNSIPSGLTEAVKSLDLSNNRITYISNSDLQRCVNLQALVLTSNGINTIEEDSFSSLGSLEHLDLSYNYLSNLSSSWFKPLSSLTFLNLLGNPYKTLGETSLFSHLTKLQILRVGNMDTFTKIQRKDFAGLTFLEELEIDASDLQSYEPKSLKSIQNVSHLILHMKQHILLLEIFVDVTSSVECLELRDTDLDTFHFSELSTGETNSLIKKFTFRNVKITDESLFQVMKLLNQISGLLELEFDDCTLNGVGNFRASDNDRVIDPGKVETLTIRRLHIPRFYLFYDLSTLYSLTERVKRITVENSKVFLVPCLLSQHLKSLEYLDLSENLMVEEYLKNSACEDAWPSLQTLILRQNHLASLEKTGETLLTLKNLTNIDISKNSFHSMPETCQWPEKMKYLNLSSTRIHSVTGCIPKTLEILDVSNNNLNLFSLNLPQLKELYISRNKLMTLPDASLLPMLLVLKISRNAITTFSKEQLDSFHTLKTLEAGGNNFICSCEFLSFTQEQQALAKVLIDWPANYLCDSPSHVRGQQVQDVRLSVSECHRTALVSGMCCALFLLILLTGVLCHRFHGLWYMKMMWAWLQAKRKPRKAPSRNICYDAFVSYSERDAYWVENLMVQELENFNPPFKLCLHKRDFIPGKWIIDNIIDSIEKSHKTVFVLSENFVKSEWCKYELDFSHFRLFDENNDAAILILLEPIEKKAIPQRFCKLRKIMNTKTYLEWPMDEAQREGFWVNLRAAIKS
T2 sequence (O00206 24-839, species assumed): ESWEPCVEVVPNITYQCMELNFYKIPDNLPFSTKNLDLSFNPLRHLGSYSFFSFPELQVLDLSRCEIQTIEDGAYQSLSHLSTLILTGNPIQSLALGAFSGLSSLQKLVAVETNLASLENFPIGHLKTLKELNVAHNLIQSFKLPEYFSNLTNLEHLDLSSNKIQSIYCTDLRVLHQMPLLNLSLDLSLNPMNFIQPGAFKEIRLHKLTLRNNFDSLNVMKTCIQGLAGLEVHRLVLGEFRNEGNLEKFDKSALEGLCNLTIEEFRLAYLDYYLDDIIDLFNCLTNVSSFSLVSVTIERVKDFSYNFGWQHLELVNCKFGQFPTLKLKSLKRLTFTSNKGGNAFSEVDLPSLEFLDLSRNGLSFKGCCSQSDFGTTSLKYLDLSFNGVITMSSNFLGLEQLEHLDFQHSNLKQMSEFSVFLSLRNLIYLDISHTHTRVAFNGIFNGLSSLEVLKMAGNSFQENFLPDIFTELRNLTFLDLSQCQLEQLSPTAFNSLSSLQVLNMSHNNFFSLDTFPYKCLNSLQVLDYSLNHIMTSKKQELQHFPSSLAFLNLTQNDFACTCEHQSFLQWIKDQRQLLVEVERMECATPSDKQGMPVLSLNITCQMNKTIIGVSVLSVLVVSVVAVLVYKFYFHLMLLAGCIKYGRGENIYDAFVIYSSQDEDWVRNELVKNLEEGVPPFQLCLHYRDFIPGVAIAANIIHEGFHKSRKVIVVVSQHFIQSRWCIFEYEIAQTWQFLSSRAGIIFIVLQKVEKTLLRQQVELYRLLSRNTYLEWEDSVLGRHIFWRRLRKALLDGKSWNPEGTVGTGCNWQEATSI
T2 sequence (Q9Y6Y9 17-160 partner limits assumed, species assumed): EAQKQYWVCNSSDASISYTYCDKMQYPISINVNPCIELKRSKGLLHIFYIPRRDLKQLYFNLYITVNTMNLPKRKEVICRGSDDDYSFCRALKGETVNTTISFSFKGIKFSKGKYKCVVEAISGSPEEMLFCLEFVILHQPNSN

NF-κB activity through TLR4 (alkaline phosphatase) (TLR4)	Sequence	NF-κB activity through TLR2 (alkaline phosphatase) (hTLR2)	survival of tumor bearing mice (breast tumor)	OVA specific T cell priming in vivo (CD8+SIINFEKL+ expansion) ([1]; BL/6 mice, ovalbumin + 50 μg peptide, Day 8, versus 15aa fragment, FIG. 9)	CD80 co-stimulatory molecule expression (MFI) [2]	CD86 co-stimulatory molecule expression (MFI) [2]	TNF secretion from BMDCs [3]	adjuvant activity in gp100-specific CD8 T cell response (IFN-γ) [4]	IFNγ response of OVA-specific OT-1 CD8 T cells [5]	antigen specific CD8+ T cell response in vivo (CD8+SIINFEKL+ expansion) ([1]; non-tumor bearing BL/6 mice, Poly:ICLC and 50 μg peptide, Day 8, FIG. 4B)	tumor size (breast tumor; breast tumor bearing mice, FIG. 5B)
–	DHSTPPSAYGSVKPYTNFDAEEQLESIINFEKLTEWT (DHSTPPSAYGSVKPYTNFDAEEQLESIINFEKLTEWT; annexin II peptide fragment minus p11) [SEQ ID NO:30, reference compound]	did not elicit a response	conferred no survival benefit	–	–	–	–	–	–	–	–
enhanced TLR2 and TLR4 signaling	STVHEALCKL SLEGD (STVHEALCKLSLEGD; annexin II variant polypeptide) [A-6, alanine for isoleucine substitution at position six of a 15 amino acid annexin II fragment]	enhanced TLR2 and TLR4 signaling	–	enhanced OVA specific T cell priming in vivo	increased CD80 and CD86 co-stimulatory molecule expression in a TLR4- and MyD88-dependent manner	increased CD80 and CD86 co-stimulatory molecule expression in a TLR4- and MyD88-dependent manner	–	–	–	–	–
–	STVHEILCKL SLEGD (STVHEILCKLSLEGD; annexin II variant polypeptide) [SEQ ID NO:5, N-terminal 15 amino acid annexin II fragment peptide]	activated TLR2	–	–	increased CD80 and CD86 co-stimulatory molecule expression in a TLR4- and MyD88-dependent manner	increased CD80 and CD86 co-stimulatory molecule expression in a TLR4- and MyD88-dependent manner	mediated induction of TNF secretion and that the activity is MyD88-dependent	–	–	–	–
–	STVHEILCKLSLEGDHSTPPSAYGSVKPYTNFDAEEQLESIINFEKLTEWT (STVHEILCKLSLEGDHSTPPSAYGSVKPYTNFDAEEQLESIINFEKLTEWT; annexin II-OVA fusion protein (A2OVA) polypeptide) [fusion peptide of the 35 amino acid annexin II N-terminus and OVA peptide]	stimulated NF-κB through TLR2	enhanced survival compared to saline or scrambled control	–	–	–	–	exerted adjuvant activity	induced an IFNγ response superior to that of A2 monomer (A2m)+OVA added as separate agents	stimulated an antigen specific CD8^+ T cell response in vivo	reducing tumor size in vivo
